Several values for one entry are separate records, joined by “and”; a condition that tells them apart may be missing. Identical values can stand only once.
Experiments:
C. albicans = assay: Fresh food preservation (infected tomato model); parameters: species or system Candida albicans; conditions: 10 μM in pH 3.0 PBS, LED 35 mW/cm^2 10 min (620 nm Zn-tpp, 660 nm Ce 6)
Excerpt: Besides fruit juices, the potential of TIF for photo-assisted fresh food preservation was also investigated with tomato as the model (pH 3.0). […] Therefore, the food additive TIF is also promising for fresh food preservation.
Tomatoes were selected as the model for photo-assisted fresh food preservation. All the tomatoes were divided into six groups, and made a wound of ~7 cm^2 by hot water. […] Afterward, the tomatoes were stored at room temperature and then subjected to repeated irradiation at day 2. The total viable counts of bacteria on the infected tomatoes were measured in day 3.

[1] = test system: C. albicans infection of oral mucosa; conditions: photosensitizer + light (510 nm TIF, 660 nm Ce 6 and Zn-tpp)
Excerpt: The extremely acidic environment was constructed through changing the pH of the mucosa and diluting PSs in pH 3.0 PBS buffer. […] During the investigations, the infected ICR mice were divided into six groups (six mice per group): blank, light, TIF, TIF + light, Ce 6 + light, and Zn-tpp + light. For comparison and better visualization of the infection, a normal group (no infection) was also included.
To construct the oral mucosal infection model, cotton balls immersed in solutions containing 10^8 CFU/mL of C. albicans were placed in the mouth of mice for 75 min. At day 1 and day 3, 50 μL pH 3.0 PBS and PSs (20 μM, diluted by pH 3.0 PBS) were added to oral mucosa, and treated with different lasers (510 nm for TIF, 660 nm for Ce 6 and Zn-tpp, 50 mW/cm^2) for 10 min.
To investigate the therapy effect, photographs, colonies, weights, and pathology index of mice were taken every other day. After day 3, one mouse in each group was sacrificed, and the tissues of oral mucosa were harvested for hematoxylin and eosin (H&E) staining. The pathology index was evaluated based on the standard given in Supplementary Table 10.

[2] = Relative singlet oxygen quantum yield (1O2 phosphorescence, Rose Bengal standard); format: physicochemical; parameters: key: relative to Rose Bengal standard (ΦΔ = 0.75); conditions: for Singlet oxygen yield (ΦΔ): mixed solvent of D2O and CH3CN (1:15) (Supplementary Table 4); for singlet oxygen quantum yield (ΦΔ): pH = 10 media, relative, RB as the standard
Protocol: To permit the open-form structure of all fluorescein derivatives, all the measurements were carried out in pH = 10 media.
The singlet oxygen quantum yields (ΦΔ) of all fluorescein-based PSs were evaluated with Rose Bengal as the standard (ΦΔ = 0.75):1 ΦΔ=AsAbsorption/As(Emission)×ARB(Emission)/ARB(Absorption)×0.75 Here, the area of absorption (RB and PSs) was collected with an integrating sphere (λex = 510 nm), while the area of emission was obtained from the characterized 1270 nm ^1O2 phosphorescence emission. For collection of such emission, CH3CN and D2O mixed solvent (v (D2O): v (CH3CN) = 1:15, pH = 9.0, adjusted with 0.001 M NaOH) was used, since H2O can severely quench the singlet oxygen luminescence. For all the measurements, the concentrations of the PSs were set at 10 μM.
S6.3 Relative singlet oxygen quantum yield
The singlet O2 quantum yield of photosensitizers were measured by Fluolog-3 spectrofluorometer with an integration sphere (IS80, Labsphere) and NIR detector (Hamamatsu H-10330) in this work.
For better collection of the characterized singlet oxygen phosphorescence emission (1275 nm), CH3CN and D2O mixed solvent was used (H2O can severely quench the singlet oxygen luminescence). The 10 mM stock solutions in CH3CN and D2O mixed solvent (VCH3CN:VD2O = 15:1) were first prepared. The stock solutions were diluted to 10 μM, and the final volume was 2 mL. In addition, the CH3CN and D2O mixed solvent as blank was also prepared.
1. Turn on the instrument and the start software, the light source is xenon lamp.
2. From the experiment menu, selected spectra, emission. The 1O2 emission phosphorescence spectra are first measured.
3. The parameters setting are listed: a. Excitation wavelength: 510 nm

[3] = pH titration of halogenated fluorescein (pH0.5); format: physicochemical; conditions: for lowering of pH0.5 compared with fluorescein: difference to fluorescein (6.09)
Protocol: The pH0.5 values (the pH value when the open form reduce to the half of the maximum) of various fluorescein derivatives were determined experimentally through pH titration (Supplementary Figs. 6–16).
The pH of the solutions were adjusted through varying the ratios of citric acid and Na2HPO4 (pH 2.2–8.0), and further acidity was adjusted with concentrated HCl or 1 M NaOH. The absorption and fluorescence spectra of the resultant solutions were then collected.
Section S5. pH-dependent Properties of the Halogenated Fluoresceins.
S5.1 pH titration of halogenated fluorescein
Fluorescein derivatives (Supplementary Table 1) were dissolved in DMSO to obtain 1 mM stock solutions and then diluted with citric acid-Na2HPO4 buffer (100 mM) to 10
μM. The pH of the solutions were adjusted through varying the ratios of citric acid and Na2HPO4 (pH 2.2-8.0), and further acidity was adjusted with concentrated HCl or 1 M
NaOH. The absorption and fluorescence spectra of the resultant solutions were then

[4] = Photophysical characterization (absorption, fluorescence, phosphorescence, lifetime); format: physicochemical; conditions: for ΦFL: 5 μM in 0.5% (v/v) DMSO, diluted with 0.1 M NaOH; for λAbs / λPh / λem: 2% DMSO; for τfl: fluorescence lifetime, 5 μM in 0.5% DMSO, 0.1 M NaOH
Protocol: Section S6. Photophysical Characterizations
S6.1 Absorption, fluorescence, and phosphorescence spectra
Fluorescein and its derivatives were dissolved in DMSO to obtain 1 mM stock solutions.
The stock solutions were diluted with deionized water to 10 μM.
Supplementary Figure 20. The absorption (black), fluorescence (blue), and phosphorescence (red, slit 25 nm) spectra of FL.
Supplementary Figure 21. The absorption (black), fluorescence (blue), and phosphorescence (red, slit 25 nm) spectra of DCF.
S6.2 Fluorescence lifetime
Fluorescence decay samples was recorded with Fluorolog-3 (Horiba). The solution of samples were prepared to be 5 μM in 0.5% (v/v) DMSO, and diluted with 0.1M NaOH.
S6.5 Photophysical properties of the halogenated-fluorescein derivatives
Supplementary Table 4. Photophysical Properties of Halogenated-fluorescein derivatives. […]
a Measured in 2% DMSO; b Measured in 2% DMSO citric acid -disodium hydrogen phosphate buffer; c Measured in a mixed solvent of D 2O and CH3CN (VD2O:
VCH3CN = 1: 15); d The solution of samples were prepared to be 5 μM in 0.5% (v/v) DMSO, and diluted with 0.1 M NaOH.

MRSA = conditions: dose 100 mg/L, 360 J/cm2; cited from earlier work
[5] = parameters: method as in PMID 10546544; conditions: Rose Bengal as the standard; cited from earlier work
L. plantarum = assay: Photodynamic inhibition of L. plantarum (coating plate method); format: cell-based, Lactobacillus plantarum; conditions: 0.5 μM photosensitizer, irradiated 10 min, pH 2.5; 620 nm red LED for Zn-tpp and PC
E.coli = conditions: dose 0.5 μM, 20 min; cited from earlier work
[6] = 2% DMSO citric acid-disodium hydrogen phosphate buffer (Supplementary Table 4)
[7] = pH value when the open form reduces to half of the maximum, pH titration, 10 μM, citric acid–Na2HPO4 buffer

Compound	wound infection of tomatoes, with light (C. albicans)	H&E staining of tongue sections, with light [1]	Singlet oxygen yield (ΦΔ) [2]	singlet oxygen quantum yield (ΦΔ) [2]	pH0.5 [3, 6]	pH0.5 [3, 7]	kdec [4] [s⁻¹]	knr [4] [s⁻¹]	krad [4] [s⁻¹]	ΦFL [4]	λAbs [4] [nm]	λPh [4] [nm]	λem [4] [nm]	τfl [4] [ns]	Inhibition ratio (MRSA) [log10]	singlet oxygen quantum yield (ΦΔ) of the standard [5]	lowering of pH0.5 compared with fluorescein [3] [units]	antimicrobial activity (survival rate of L. plantarum) (L. plantarum)	Inhibition ratio (E.coli) [log10]
C=Cc1c(C)c2cc3nc(c(CC(=O)O)c4[nH]c(cc5nc(cc1[nH]2)C(C)=C5CC)c(C)c4C(=O)O)[C@@H](CCC(=O)O)[C@@H]3C [Ce 6, reference compound]	different magnitudes of wound infection	large amounts of inflammation infiltration	–	–	–	–	–	–	–	–	–	–	–	–	–	–	–	–	–
O=C(O)c1ccccc1-c1c2ccc(=O)c(Br)c-2oc2c(Br)c(O)ccc12 [DBF, Dibromo-fluorescein]	–	–	0.26	0.19	4.63	4.63 and 4.52	5.03e+08	3.5e+08	1.52e+08	0.303	504	685	531	1.99	–	–	–	–	–
O=C(O)c1ccccc1-c1c2ccc(=O)c(I)c-2oc2c(I)c(O)ccc12 [DIF, Diiodo-fluorescein]	–	–	–	0.63	4.13	4.13	1e+11	9.99e+10	1e+08	0.001	527	699	549	0.01	–	–	–	–	–
CN(C)c1ccc2nc3ccc(=[N+](C)C)cc-3sc2c1 [Methylene Blue]	–	–	–	–	–	–	–	–	–	–	–	–	–	–	4.7	–	–	–	–
O=C(O)c1c(Cl)c(Cl)c(Cl)c(Cl)c1-c1c2cc(Cl)c(=O)c(Cl)c-2oc2c(Cl)c(O)c(Cl)cc12 [OCF, Octachloro-fluorescein]	–	–	0.11	0.11	3.41	3.41	2.31e+08	9.3e+07	1.38e+08	0.597	537	676	556	4.33	–	–	–	–	–
O=C(O)c1c(Cl)c(Cl)c(Cl)c(Cl)c1-c1c2cc(Br)c(=O)c(Br)c-2oc2c(Br)c(O)c(Br)cc12 [PB, Tetrabromo-tetrachloro-fluorescein]	–	–	–	0.26	3.45	3.45	8e+08	6.64e+08	1.36e+08	0.170	539	730	560	1.25	–	–	–	–	–
O=C(O)c1c(Cl)c(Cl)c(Cl)c(Cl)c1-c1c2cc(I)c(=O)c(I)c-2oc2c(I)c(O)c(I)cc12 [RB, Tetraiodo-tetrachloro-fluorescein]	–	–	0.75	0.75	3.99	3.99	1e+11	9.97e+10	3e+08	0.003	550	732	570	0.01	–	0.75	–	–	–
O=C(O)c1ccccc1-c1c2cc(Cl)c(=O)c(Cl)c-2oc2c(Cl)c(O)c(Cl)cc12 [TCF-1, Tetrachloro-fluorescein-1]	–	–	0.06	0.06	2.79	2.79	2.44e+08	7.8e+07	1.66e+08	0.680	515	655	536	4.09	–	–	3.30	–	–
O=C(O)c1c(Cl)c(Cl)c(Cl)c(Cl)c1-c1c2ccc(=O)cc-2oc2cc(O)ccc12 [TCF-2, Tetrachloro-fluorescein-2]	–	–	–	0.05	5.89	5.89 and 5.93	2.05e+08	3e+07	1.75e+08	0.854	511	637	531	4.87	–	–	0.16	–	–
C1=Cc2nc1c(-c1ccccc1)c1ccc([n-]1)c(-c1ccccc1)c1nc(c(-c3ccccc3)c3ccc([n-]3)c2-c2ccccc2)C=C1.[Zn+2] [Zn-tpp, Zinc(II) tetraphenylporphyrin, reference compound]	different magnitudes of wound infection	large amounts of inflammation infiltration	–	–	–	–	–	–	–	–	–	–	–	–	–	–	–	no obvious antimicrobial activity	–
Dichloro-fluorescein [DCF]	–	–	–	0.04	4.77	4.77	2.31e+08	7.7e+07	1.54e+08	0.668	502	645	529	4.33	–	–	–	–	–
Fluorescein	–	–	–	0.01	6.09	6.09	2.18e+08	3.1e+07	1.87e+08	0.858	491	638	515	4.58	–	–	–	–	–
[Ru(bpy)2(dppn)]2+	–	–	–	–	–	–	–	–	–	–	–	–	–	–	–	–	–	–	5.4

— paper PMC7822816, “Halo-fluorescein for photodynamic bacteria inactivation in extremely acidic conditions” (Nature Communications, 2021)
